Article PMC11007773 (ACS Omega, 2024)

Molecular target: Human transferrin (Htf) (Homo sapiens, UniProt P02787)
Assay: isothermal titration calorimetry
Assay type: binding

Chain of Human transferrin (Htf) (P02787 20-698): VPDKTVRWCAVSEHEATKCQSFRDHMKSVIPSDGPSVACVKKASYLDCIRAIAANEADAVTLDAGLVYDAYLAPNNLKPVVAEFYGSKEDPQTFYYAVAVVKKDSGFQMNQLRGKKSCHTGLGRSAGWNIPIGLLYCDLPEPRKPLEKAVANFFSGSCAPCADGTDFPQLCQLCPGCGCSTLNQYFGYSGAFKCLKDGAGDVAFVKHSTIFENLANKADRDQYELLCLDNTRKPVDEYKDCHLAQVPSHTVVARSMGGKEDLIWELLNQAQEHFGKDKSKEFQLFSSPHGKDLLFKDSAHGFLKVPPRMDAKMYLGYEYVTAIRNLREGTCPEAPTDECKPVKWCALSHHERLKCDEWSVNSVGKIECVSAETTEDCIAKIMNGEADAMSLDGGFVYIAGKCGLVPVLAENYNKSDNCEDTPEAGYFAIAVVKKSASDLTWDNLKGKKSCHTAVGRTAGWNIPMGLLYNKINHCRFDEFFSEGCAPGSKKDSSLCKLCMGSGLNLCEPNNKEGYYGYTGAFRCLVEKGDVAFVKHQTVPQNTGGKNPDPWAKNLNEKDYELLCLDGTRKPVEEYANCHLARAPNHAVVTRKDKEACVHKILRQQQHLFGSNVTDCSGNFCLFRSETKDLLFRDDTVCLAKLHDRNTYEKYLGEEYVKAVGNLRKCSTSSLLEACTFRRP

O=c1oc2c(O)c(O)cc3c(=O)oc4c(O)c(O)cc1c4c23 [Ellagic acid]
Kd: 1450 nM
